We go through twelve compounds from US10654834B2 (Venenum Biodesign, LLC, priority 2016, dated 2020).

One assay deals with T1, human TGR5 receptor (Homo sapiens, UniProt Q8TDU6).
T1 construct: host or cells: CHO-K1 (hTGR5-CHO)
T1 sequence (Q8TDU6 1-330): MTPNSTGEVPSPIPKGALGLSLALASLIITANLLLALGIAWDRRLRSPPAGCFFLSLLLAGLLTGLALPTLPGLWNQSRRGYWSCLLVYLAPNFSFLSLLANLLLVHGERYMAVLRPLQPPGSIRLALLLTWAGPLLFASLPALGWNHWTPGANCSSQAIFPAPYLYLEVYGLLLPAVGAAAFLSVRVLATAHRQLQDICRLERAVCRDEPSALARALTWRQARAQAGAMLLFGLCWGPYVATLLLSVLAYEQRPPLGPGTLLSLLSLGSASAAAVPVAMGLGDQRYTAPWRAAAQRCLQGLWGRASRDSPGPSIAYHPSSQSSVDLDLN
Kind of assay: Human TGR5 cAMP production assay (hTGR5-CHO cells, DiscoveRx cAMP XS+ kit). In kind it is cell-based. The note with it: luminescent cAMP assay, read-out: Human TGR5 Lum. cAMP Activity (EC50). In a few lines:
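CHO-K1 cells stably expressing hTGR5, in PBS with IBMX and cAMP antibody, treated with half-log compound dilutions for 1 h at room temperature. cAMP measured by enzyme-fragment complementation luminescence after overnight detection; EC50 values reported.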
Background: cAMP levels reflect the balance of adenylyl cyclase and phosphodiesterase activity.

In the next assay the target is T2, mouse TGR5 receptor (Mus musculus, UniProt Q80SS6).
T2 construct: host or cells: HEK293-EBNA (293 c18, ATCC CRL10852)
T2 sequence (Q80SS6 1-329): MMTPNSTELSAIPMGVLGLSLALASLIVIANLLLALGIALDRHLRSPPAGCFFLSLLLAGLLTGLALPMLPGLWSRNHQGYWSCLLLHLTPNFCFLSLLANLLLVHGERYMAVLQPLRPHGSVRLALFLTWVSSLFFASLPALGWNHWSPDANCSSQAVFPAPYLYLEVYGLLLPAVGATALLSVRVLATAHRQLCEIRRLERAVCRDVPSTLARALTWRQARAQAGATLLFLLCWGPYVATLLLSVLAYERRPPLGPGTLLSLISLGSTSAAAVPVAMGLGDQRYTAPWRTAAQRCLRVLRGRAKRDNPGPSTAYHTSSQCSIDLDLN
Kind of assay: Mouse TGR5 luminescent cAMP production assay (HEK293-EBNA cells, DiscoveRx cAMP XS+ kit). In kind it is cell-based. The following applies: HEK293-EBNA cells overexpressing mouse TGR5, luminescent cAMP assay; read-out: Mouse TGR5 Lum. cAMP Activity (EC50). The procedure:
Mouse TGR5 cAMP Production Assay
Compounds of the present invention were evaluated for their ability to induce cAMP production in HEK-EBNA cells overexpressing the mouse TGR5 receptor. Human embryonic kidney cells (HEK293-EBNA) stably expressing mouse TGR5 receptor were established using the following procedure. Specifically, a commercially obtained gene encoding mouse TGR5 (accession number BC116914) from Thermo Scientific (Waltham, Mass.) was cloned into an episomal expression vector. The resulting expression plasmid was then transfected into 293 c18 (ATCC® CRL10852™) cells, which express the Epstein-Barr virus nuclear antigen EBNA1 and can support the replication of episomal vectors. Selection for the plasmid was maintained with Hygromycin B. Cells were cultured and maintained in DMEM (Sigma; cat #6429) supplemented with 10% Fetal Bovine Serum, 1% penicillin/streptomycin, 2 mM L-alanine L-glutamine (GlutaMax), and 250 μg/mL Hygromycin.
We developed two cAMP production assays.
(i) Luminescent cAMP Production Assay
In this first cAMP production assay, the cAMP production was measured using DiscoveRx's cAMP XS+ kit following the manufacturer's recommended protocol. Briefly, HEK293-EBNA cells stably overexpressing mouse TGR5 were harvested using non-enzymatic cell dissociation buffer (Sigma-Aldrich, St. Louis, Mo.), spun down, then resuspended in serum-free DMEM with 500 μM IBMX at a density of 1.25×10^6 cells/mL. 500 μL of cAMP antibody solution was added to 500 μL of cell suspension and incubated at room temperature for 20 min.
Test compounds were serially diluted (half-log dilutions) in DMSO and then further diluted 1:50 in PBS, 10 mM HEPES buffer. 2 μL of serially diluted compound was added to a 384-well low volume plate (Greiner cat #784075) and centrifuged briefly. 2 μl of the cell/cAMP antibody mixture was then added to each compound-containing well and allowed to incubate at room temperature for one (1) hour. Following incubation, the XS+ kits' ED/Lysis/CL Substrate Working Solution was prepared following the manufacturer's recommended protocol and 4 μL was added to each well of the plate. The plate was then incubated for one (1) hour at room temperature. Following incubation, 4 μL of (Enzyme Acceptor) EA reagent was added to the plate and allowed to incubate overnight at room temperature. Luminescent signal was then detected using the Viewlux instrument (PerkinElmer, Waltham, Mass.).
In Table 52, EC50 values for both human and mouse cells were determined according to the TGR5 cAMP assays described above. […]

Structures can show the parent of a compound that is named as a salt.

For the compound `COc1cc(-c2cc(N3CCC[C@H]3C(=O)NCCc3ccc(C#N)cc3)nc(C(F)(F)F)n2)c(Cl)cn1` [Compound 161, (S)-1-(6-(5-chloro-2-methoxy-pyridin-4-yl)-2-(trifluoromethyl)pyrimidin-4-yl)-N-(4-cyanophenethyl)pyrrolidine-2-carboxamide], the half-maximal effective concentration (EC50) at human TGR5 receptor is 1000 to 30000 nM; at mouse TGR5 receptor, below 100 nM.

As to `CN(CC1CCN(c2cc(N3CCC[C@H]3C(=O)NCCc3ccc(C#N)cc3)nc(C(F)(F)F)n2)CC1)C(=O)OC(C)(C)C` [Compound 20], the EC50 at human TGR5 receptor and on mouse TGR5 receptor was 1000 to 30000 nM each time.

Regarding `N#Cc1ccc(CCNC(=O)[C@@H]2CCCN2c2cc(Oc3ccccc3)nc(C(F)(F)F)n2)cc1` [Compound 43, (S)-N-(4-cyanophenethyl)-1-(6-phenoxy-2-(trifluoromethyl)pyrimidin-4-yl)pyrrolidine-2-carboxamide], the EC50 on human TGR5 receptor and on mouse TGR5 receptor was 100 to 999 nM each time.

Consider `COCC1CCN(c2cc(N3CCC[C@@H](C(=O)NCCc4ccc(C#N)cc4)C3)nc(C(F)(F)F)n2)CC1` [Compound 310, (R)-N-(4-cyanophenethyl)-1-(6-(4-(methoxymethyl)piperidin-1-y1)-2-(trifluoromethyl)pyrimidin-4-yl)piperidine-3-carboxamide], for which the EC50 on human TGR5 receptor is below 100 nM; at mouse TGR5 receptor, 100 to 999 nM.

As for `CCCCCCc1ccc(-c2cc(N3CCC[C@H]3C(=O)NCCc3ccc(C#N)cc3)nc(C(F)(F)F)n2)s1` [Compound 139, (S)—N-(4-cyanophenethyl)-1-(6-(5-hexylthiophen-2-yl)-2-(trifluoromethyl)pyrimidin-4-yl)pyrrolidine-2-carboxamide], the 50% effective concentration (EC50) on human TGR5 receptor and at mouse TGR5 receptor was 1000 to 30000 nM each time.

Consider `N#Cc1ccc(CCNC(=O)[C@@H]2CCN2c2cc(-c3ccc(CO)cc3)nc(C(F)(F)F)n2)cc1` [Compound 304, (S)-N-(4-cyanophenethyl)-1-(6-(4-(hydroxymethyl)phenyl)-2-(trifluoromethyl)pyrimidin-4-yl)azetidine-2-carboxamide], for which the 50% effective concentration (EC50) at human TGR5 receptor and at mouse TGR5 receptor was 100 to 999 nM each time.

As for `N#Cc1ccc(CCNC(=O)[C@@H]2CCCN2c2cc(-c3csc(C(=O)O)c3)nc(C(F)(F)F)n2)cc1` [Compound 178, (S)-4-(6-(2-((4-cyanophenethyl)carbamoyl)pyrrolidin-1-yl)-2-(trifluoromethyl)pyrimidin-4-yl)thiophene-2-carboxylic acid], the results for the EC50 at human TGR5 receptor and on mouse TGR5 receptor were 1000 to 30000 nM and below 100 nM, respectively.

Take `COCC(=O)N1CCN(c2cc(N3CCC[C@@H](C(=O)NCCc4ccc(C(F)(F)F)cc4)C3)nc(C(F)(F)F)n2)CC1` [Compound 337, (R)-1-(6-(4-(2-methoxyacetyl)piperazin-1-yl)-2-(trifluoromethyl)pyrimidin-4-yl)-N-(4-(trifluoromethyl)phenethyl)piperidine-3-carboxamide]: the values for the EC50 on human TGR5 receptor and at mouse TGR5 receptor were 100 to 999 nM and below 100 nM, respectively.

As for `O=C(NCCc1ccc(C(F)(F)F)cc1)[C@@H]1CCCN1c1cc(N2CCC(CCO)CC2)nc(C(F)(F)F)n1` [Compound 7], the half-maximal effective concentration (EC50) at human TGR5 receptor and on mouse TGR5 receptor was below 100 nM each time.

Turning to `CC(C)(C)OC(=O)NCCC1CCN(c2cc(N3CCC[C@H]3C(=O)NCCc3ccc(C#N)cc3)nc(C(F)(F)F)n2)CC1` [Compound 18], the EC50 at human TGR5 receptor and on mouse TGR5 receptor was 100 to 999 nM in each case.

In the case of `COCC1CCN(c2cc(N3CCC[C@H]3C(=O)NCCc3ccc(C(F)(F)F)cc3)nc(C(F)(F)F)n2)CC1` [Compound 8], the EC50 is below 100 nM on human TGR5 receptor and 100 to 999 nM on mouse TGR5 receptor.

In the case of `N#Cc1ccc(CCNC(=O)[C@@H]2CCN2c2cc(N3CCC(CN)CC3)nc(C(F)(F)F)n2)cc1` [Compound 245, (S)-(1-(6-(4-aminomethylpiperidin-1-yl)-2-(trifluoromethyl)pyrimidin-4-yl)-N-(4-cyanophenethyl)azetidine-2-carboxamide hydrochloride], the EC50 at human TGR5 receptor and at mouse TGR5 receptor was 100 to 999 nM throughout.

The EC50 is the concentration giving half of the maximal effect.
